Measurements taken from PMC9223397 (International Journal of Molecular Sciences, 2022).

What was measured:
Sig-1R/BiP interaction = experiment: BiP/Sig-1R association assay in CHO cells; format: cell-based; settings: for Effect on Sig-1R/BiP association: 10 µM
Experimental: The interaction between Sig-1R and the chaperone BiP was used to identify the functional nature (agonistic or antagonistic) of compounds [38]. The assay was conducted by Amylgen according to their standard assay protocol (https://www.amylgen.fr/ (accessed on 15 May 2022)). Each assay condition consisted of six determinations. In brief, CHO cells were treated with compounds at 37 °C for 30 min and lysed. CHO cell lysates were immunoprecipitated with Sig-1R antibody, and coimmunoprecipitated BiP was detected by ELISA assay. In each experiment, untreated control cell lysates were used to assess the maximal level of Sig1R-BiP interaction and represented 100% of Sig1R-BiP association. Cells treated with compounds at the corresponding concentrations were equally processed, and the level of Sig1R-BiP association in those conditions was referred to as the control condition. In this experimental setting, Sig1R agonists were able to reduce the Sig1R-BiP interaction, while antagonists were not.

SOD1^G93A mice = experiment: Rotarod test in SOD1G93A mice; format: in vivo, SOD1^G93A male mice; settings: 0.25 mg/kg i.p.; at 15 and 16 weeks
Experimental: (§1) The compounds were dissolved in 0.5% hydroxypropyl-methylcellulose (HPMC; H7509, Sigma-Aldrich) in distilled water and were administered by intraperitoneal (i.p.) route twice daily (bid) in a volume of 10 mL/kg. Administrations were given from 30 min after rhizotomy surgery until 42 days post-injury (dpi), the end of the study; in the SOD1^G93A study, treatments were given from 8 to 16 weeks of age (see Figure 6).
A rotarod test was performed to evaluate motor coordination and strength. The time that each animal remained on the rotating rod at a speed of 14 rpm was measured for five trials per mouse, and the longest time until falling was recorded; 180 s was chosen as the cut-off time. The test was performed weekly from 8 to 16 weeks of age in SOD1^G93A and WT mice, and disease onset was determined as the first week when each mouse was unable to keep walking for 180 s on the rod.

[1] = test system: spinal α-MNs in SOD1^G93A mice; experiment: Spinal MN counts in SOD1G93A mice; format: in vivo, SOD1^G93A male mice; settings: 0.25 mg/kg i.p.; 16 weeks of age
Experimental: as §1
(§2) At the end of follow-up (42 dpi for rhizotomy and 16 weeks of age for ALS mice; Figure 6), the animals were deeply anesthetized and transcardially perfused with 4% PFA in PBS. The lumbar spinal cord and the TA muscle were harvested and cryopreserved in 30% sucrose solution in PB. The spinal cords were serially cut in 20 µm thick transverse sections with a cryostat (Leica, Mannheim, Germany). For MN counting, L4-L5 spinal cord sections separated 100 µm were stained for 3 h with an acidified solution of 3.1 mM cresyl violet. MNs were identified by their localization in the lateral ventral horn of the spinal cord and were counted following strict size and morphological criteria: only MNs with a diameter larger than 20 µm, polygonal shape, and prominent nucleoli were counted.

[2] = test system: NMJs of hindlimb muscle in SOD1^G93A mice; experiment: Neuromuscular junction innervation in SOD1G93A mice; format: in vivo, SOD1^G93A male mice; settings: 0.25 mg/kg i.p.; 16 weeks of age
Experimental: as §1
For neuromuscular junction (NMJ) labeling, 50 µm thick longitudinal sections of TA muscle were serially cut. Sections were blocked with 5% normal donkey serum and incubated with primary antibodies rabbit anti-synaptophysin (1:500; Ab32127, Abcam, Cambridge, UK) and chicken anti-neurofilament 200 (NF200, 1:1000; AB5539, Millipore, Burlington, MS, USA) 48 h at 4 °C. After washes, sections were incubated overnight with secondary antibody Alexa Fluor 594-donkey anti-rabbit and anti-chicken (1:200; A11042-A21207, Invitrogen, USA) and Alexa 488 conjugated α-bungarotoxin (1:500; B13422, Life Technologies, Carlsbad, CA USA). Confocal images were captured (LSM 700 Axio Observer, Carl Zeiss, Jena, Germany, 40xOil/z0.5), and the maximum projection images generated from 1.3 µm z projections. The proportion of innervated NMJs was calculated by classifying each endplate as occupied (when presynaptic terminals overlie the endplate) or vacant (no presynaptic label in contact with the endplate). At least 60 endplates were analyzed per muscle.

[3] = test system: microglia and astrocytes in ventral horn of SOD1^G93A mice; experiment: Glial reactivity in SOD1G93A mice (Iba1, GFAP); format: in vivo, SOD1^G93A male mice; settings: 0.25 mg/kg i.p.; 16 weeks of age
Experimental: as §1
(§3) For glial cells immunofluorescence, other lumbar spinal cord sections were blocked with 10% normal donkey serum and incubated overnight with primary antibodies rabbit anti-Iba1 (1:500; 019–19741, Wako) and rat anti-GFAP (1:500; 13-0300, Invitrogen) to label microglia and astroglia, respectively. After several washes, sections were incubated with secondary antibodies Alexa Fluor 488-donkey anti-rat (1:500; A-21208, Invitrogen) or Alexa Fluor 594 donkey anti-rabbit (1:500; A21207, Invitrogen). Finally, sides were mounted with Fluoromount-G. To quantify glial cell reactivity, images of the ventral horn were acquired with an epifluorescence microscope (Nikon Eclipse Ni, Japan) using the same conditions for each analyzed marker. After defining a threshold for background correction, the integrated density of GFAP or Iba1 labeling was measured using ImageJ software.

[4] = molecular target: T1, human Sigma-2 receptor (Sig-2R) (Homo sapiens, UniProt Q5BJF2); experiment: Human Sig-2R radioligand assay; format: binding; settings: [3H]-DTG, transfected HEK-293 Sig-1R knockout membranes
T1 construct: expressed in transfected cells; host or cells: HEK-293 Sig-1R knockout (membranes)
T1 sequence (Q5BJF2 whole entry): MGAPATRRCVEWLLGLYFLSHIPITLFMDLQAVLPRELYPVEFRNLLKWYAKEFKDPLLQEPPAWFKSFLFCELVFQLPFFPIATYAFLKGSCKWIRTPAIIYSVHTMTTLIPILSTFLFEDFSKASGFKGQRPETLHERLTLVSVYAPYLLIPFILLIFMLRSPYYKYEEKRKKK
Experimental: The binding properties of the compounds to the human Sig-2R were similarly studied in transfected HEK-293 Sig-1R knockout membranes using [^3H]-1,3-di-o-tolylguanidine (DTG) (NET-986, PerkinElmer; Boston, USA) as the radioligand. The assay was carried out with 15 μg of membrane suspension, [^3H]-1,3-di-o-tolylguanidine (DTG) (10 nM, 100 μL), in either the absence or presence of either buffer or 10 μM haloperidol for total (TB) and nonspecific (NSB) binding, respectively, or the corresponding compound concentration. Binding buffer contained Tris-HCl (50 mM, pH 7.4). Plates were incubated at 25 °C for 120 min. After incubation, the reaction mix was transferred to MultiScreen HTS, FC plates (Merck Millipore) presoaked in 0.5% polyethyleneimine, and filtered. Following that, plates were washed with ice-cold Tris-HCl (10 mM, pH 8). Filters were dried and counted, and data were processed as above.

[5] = test system: spinal MNs after L4-L5 rhizotomy; experiment: MN survival after L4-L5 rhizotomy (cresyl violet MN counts); format: in vivo, female mice (B6SJL); settings: 0.25 mg/kg bid i.p., 42 dpi; positive control
Experimental: (§4) Surgeries were performed on three-month-old mice under anesthesia with ketamine-xylazine (100–10 mg/kg i.p.) as previously described. Briefly, the L4-L5 spinal roots were exposed by a small laminectomy on the right side. Afterwards, roots were cut at the exit from the intervertebral foramina, and the root stumps were separated. Mice were cared for until recovery in a warm environment. Analgesia was provided with buprenorphine (0.1 mg/kg) for the next 48 h post-surgery.
as §1, §2

[6] = Body weight in SOD1G93A mice; format: in vivo, SOD1^G93A male mice; settings: 0.25 mg/kg i.p., 8 to 16 weeks of age
Experimental: as §1

[7] = test system: microglia and astrocytes in ventral horn after rhizotomy; experiment: Glial reactivity after L4-L5 rhizotomy (Iba1, GFAP immunolabeling); format: in vivo, female mice (B6SJL); settings: 0.25 mg/kg bid i.p., 42 dpi
Experimental: as §4, §1, §3

[8] = Plasma levels, spinal nerve injury (rhizotomy) model; format: in vivo, female mouse; settings: plasma, ip; spinal nerve injury female mouse, 0.25 mg/kg i.p.; 30 min post-administration; data obtained in a separate study
Experimental: as §1
Plasma levels were determined in the two in vivo models evaluated to be able to associate the pharmacological activity with the levels present in plasma. […] In the SOD1^G93A model, the plasma levels were evaluated at 16 weeks of age (after 8 weeks of administration) and 15 min after compound administration (5 mg/kg i.p.). Plasma samples were assayed by ultraperformance liquid chromatography−triple quadrupole mass spectrometry (UPLC-MS/MS) after plasma protein precipitation. Results are expressed as mean ± standard deviation (n = 8).

[9] = Plasma levels, SOD1G93A model; format: in vivo, Transgenic SOD1^G93A male mouse; settings: SOD1G93A transgenic, plasma, ip; SOD1G93A male mouse, 0.25 mg/kg i.p.; 30 min post-administration; data obtained in a separate study
Experimental: as §1
Plasma levels were determined in the two in vivo models evaluated to be able to associate the pharmacological activity with the levels present in plasma. In the rhizotomy model, the plasma levels were evaluated at Day 42 after surgery and at 15 min after compound administration (0.5 and 5 mg/kg i.p.). […] Plasma samples were assayed by ultraperformance liquid chromatography−triple quadrupole mass spectrometry (UPLC-MS/MS) after plasma protein precipitation. Results are expressed as mean ± standard deviation (n = 8).

[10] = test system: NSC34 SOD1^G93A-induced cell death; parameters: method as in PMID 24334165; settings: more significant effect at 10 μM; cited from earlier work

CCCN(CCC)CCc1ccc(OC)c(OCCc2ccccc2)c1 [NE100, reference compound]
Effect on Sig-1R/BiP association (Sig-1R/BiP interaction): antagonist effect
Reversion of the effect of PRE-084 on Sig-1R/BiP association (Sig-1R/BiP interaction; compound 10 µM, PRE-084 10 µM): able to revert the effect of PRE-084

O=C(OCCN1CCOCC1)C1(c2ccccc2)CCCCC1 [PRE-084, 2-(4-Morpholinethyl)1-Phenylcyclohexanecarboxylate, reference compound]
Rotarod performance vs vehicle (SOD1^G93A mice): significantly improved the functional outcome
Number of surviving spinal α-MNs [1]: 12.4 ± 0.9 MNs per section
Effect on Sig-1R/BiP association (Sig-1R/BiP interaction): Agonist effect
Proportion of innervated endplates (NMJ) vs untreated [2]: significantly increased the proportion of innervated endplates
Astrocyte activation (GFAP) [3]: significant decrease in astrocyte activation
IC50 [4]: > 10 µM
Number of spinal MNs ± SEM, ipsilateral ventral horn [5]: 8.9 ± 0.4
Body weight vs vehicle group [6]: did not cause differences in body weight
GFAP integrated density ± SEM (astroglial reactivity) [7]: 6 × 10^4 ± 0.9 × 10^4
Iba1 integrated density ± SEM (microglial reactivity) [7]: 15 × 10^4 ± 1.4 × 10^4
concentration at 30 min [8]: 3.6 ng/mL
concentration at 30 min [9]: 2.6 ng/mL

COc1ccc(CCN2CCN(CCCc3ccccc3)CC2)cc1OC [SA4503]
NSC34 SOD1G93A-induced cell death [10]: reduced NSC34 SOD1^G93A-induced cell death in a concentration-dependent manner
